According to US20130156845A1, “LIPID FORMULATED SINGLE STRANDED RNA” (ALNYLAM PHARMACEUTICALS, INC., priority 2010, published 2013):
Like-named read-outs stand apart in the source and are kept apart here. Strand notation (5' to 3'): a small letter for the sugar, then the base; units joined by * are phosphorothioate-linked, units joined directly phosphodiester-linked; [ ] holds rarer units or linkages, { } end groups; capitals alone tell only the bases. [Rc] = thymidine, 2',5'-bis modified nucleoside Rc; e = 2'-O-(2-methoxyethyl) (MOE); m = 2'-O-methyl; {P} = phosphate; f = 2'-fluoro

Assays:
[1] = tested on: human PTEN; assay: PTEN expression in HeLa cells, ssRNAs vs siRNAs (Example 62); assay type: cell-based
Method in brief: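 HeLa cells treated with antisense strands either as single-stranded RNAs or duplexed with a common sense strand. PTEN mRNA levels normalized; IC50 from linear regression of normalized mRNA against log concentration.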

[2] = tested on: PTEN; assay: PTEN mRNA reduction in HeLa cells, dose response (Example 69); assay type: cell-based, human; conditions: percent inhibition of PTEN mRNA, 0.067-50 nM
Method: In accordance with the present disclosure, oligomeric compounds were synthesized and tested for their ability to reduce PTEN expression over a range of doses. Human HeLa cells were treated with either ISIS 447581, 467074, 418046 or 467076. A dose comparison was evaluated with dose concentrations of 0.067, 0.2, 0.62, 1.9, 5.5, 16.7 and 50 nM using methods described herein. Expression levels of PTEN were determined using real-time PCR and normalized to RIBOGREEN™ using methods described herein. The percent inhibition of PTEN mRNA was determined and the resulting dose-response curves were used to determine the EC50. The EC50s are listed below.

[3] = tested on: PTEN; assay: PTEN mRNA reduction in HeLa cells, dose response (Example 59); assay type: cell-based, human; conditions: percent inhibition of PTEN mRNA, real-time PCR normalized to RIBOGREEN, 0.20-50 nM
Method: When cells reached 65-75% confluency, they are treated with one or more oligomeric compounds. The oligomeric compound is mixed with LIPOFECTIN™ Invitrogen Life Technologies, Carlsbad, Calif.) in Opti-MEM™-1 reduced serum medium (Invitrogen Life Technologies, Carlsbad, Calif.) to achieve the desired concentration of the oligomeric compound(s) and a LIPOFECTIN™ concentration of 2.5 or 3 μg/mL per 100 nM oligomeric compound(s). This transfection mixture is incubated at room temperature for approximately 0.5 hours. For cells grown in 96-well plates, wells are washed once with 100 μL OPTI-MEM™-1 and then treated with 130 μL of the transfection mixture. Cells grown in 24-well plates or other standard tissue culture plates are treated similarly, using appropriate volumes of medium and oligomeric compound(s). […]
Quantitation of target mRNA levels is accomplished by real-time quantitative PCR using the ABI PRISM™ 7600, 7700, or 7900 Sequence Detection System (PE-Applied Biosystems, Foster City, Calif.) according to manufacturer's instructions. This is a closed-tube, non-gel-based, fluorescence detection system which allows high-throughput quantitation of polymerase chain reaction (PCR) products in real-time. As opposed to standard PCR in which amplification products are quantitated after the PCR is completed, products in real-time quantitative PCR are quantitated as they accumulate. […]

[4] = mouse, serum
Method: Single-stranded oligomeric compounds were tested for stability in mouse serum.

[5] = tested on: miR-34 seed-matched nucleic acids; assay: Microarray analysis of gene expression changes after miR-34 mimics; assay type: cell-based; conditions: microarray analysis of cells treated with miR-34 mimics
Source text: In addition to measuring cell cycle progression, cells treated with miR-34 mimics were subjected to microarray analysis to compare the profile of gene expression changes following treatment with microRNA mimics.

[6] = tested on: A549 cells; assay: MicroRNA mimics: cell cycle assay; assay type: cell-based; conditions: RNAIMAX transfection, 0.1-100 nM, nocodazole, propidium iodide flow cytometry
Method: A cell cycle assay was used to evaluate the activity of microRNA mimics. A549 cells were plated at a density of approximately 45,000 cells per well of a 24-well plate. The following day, cells were transfected with microRNA mimics and control oligomeric compounds, using RNAIMAX as the transfection reagent. Oligomeric compounds were tested at concentrations ranging from 0.1 nM to 100 nM. Control oligomeric compounds were also tested. Approximately 24 hours following transfection, nocodazole was added to the cells at a concentration ranging from 0.5 to 2.0 μg/ml. Approximately 16 hours later, the cells were harvested, washed, ethanol-fixed and stained with propidium iodide. Cells cycle profiles were generated by subjecting the stained cells to flow cytometry (FACSCAN).

Question: What does the source list for “P-TRcUfGmUfCmUfCmUfGmGfUmCfCmUfUmAfCmUfUmAeAe (antisense TUGUCUCUGGUCCUUACUUAA; sugars from the 5' end [Rc]fmfmfmfmfmfmfmfmfmee, 5' {P}, backbone not given here) [ISIS 447581, modified ssRNA targeting PTEN]”?
Answer: EC50 ([1]; antisense strand duplexed with sense strand ISIS 341401, PTEN mRNA, read-out: EC50 (nM) siRNA): 0.4 nM; EC50 ([1]; single stranded antisense compound, PTEN mRNA, read-out: EC50 (nM) ssRNA): 1 nM; EC50 [2]: 0.6 nM; EC50 [3]: 0.87 nM

Question: With “5′-Ps-UdUfoGfoUfoCfoUfoCfoUfoGfoGfoUfoCfoCfoUfsUfsAfsCfsUfsUfsAesAe [ISIS 435395]” as the substance, how does the T1/2 full length [4] read?
Answer: 7.8 h

Question: What does the source list for “P-UmGfGfCfAfGfUfGfUmCmUfUfAmGmCfUfGfGfUfUfGfUfAeAe ({P}-mUfGfGfCfAfGfUfGmUmCfUfUmAmGfCfUfG*fG*fU*fU*fG*fU*eA*eA) [ss miR-34]”?
Answer: effect on miR-34 seed-matched nucleic acids [5]: down-regulated miR-34 seed-matched nucleic acids; cell cycle phenotype [6]: blocking cells in the G1 phase of the cell cycle
